What is called LC50 is the concentration that kills 50% of the test population. Read a low LC50 as a more lethal substance.

Results on ten compounds are retold here after ChEMBL document CHEMBL1141818, “Annonaceous acetogenins: recent progress” (J Nat Prod, 1999).

The subject of one data set is PC-3. Put plainly: Cytotoxicity against human PC-3 cells. It is filed as functional. The conditions noted are these: for EC50: Homo sapiens, PC-3, read-out: ED50 (the source's name).
The next data set has as its system MIA PaCa-2. The data set can be described thus: Cytotoxicity against human MIA PaCa2 cells. It is filed as functional. The conditions noted are these: for EC50: Homo sapiens, MIA PaCa-2, read-out: ED50 (the source's name).
The nature of data set [1]: Toxicity in brine shrimp. The data set is classed as organism-based. The conditions noted are these: artemia, in vivo.
The next data set relates to A549. The data set can be described thus: Cytotoxicity against human A549 cells. It is filed as functional. The conditions noted are these: for EC50: Homo sapiens, A549, read-out: ED50 (the source's name).
The next data set deals with MCF7. Put plainly: Cytotoxicity against human MCF7 cells. The conditions noted are these: for EC50: Homo sapiens, MCF7, read-out: ED50 (the source's name). It is filed as functional.
In a further data set the test system is HT-29. The data set can be described thus: Cytotoxicity against human HT-29 cells. The conditions noted are these: for EC50: Homo sapiens, HT-29, read-out: ED50 (the source's name). The data set is classed as functional.
The test system of a further data set is A498. Put plainly: Cytotoxicity against human A-498 cells. It is filed as functional. The conditions noted are these: for EC50: Homo sapiens, A498, read-out: ED50 (the source's name).

In brackets after ≈: the same amount, converted by molar mass. Some results are limits rather than exact numbers.

Turning to `CCCCC[C@H](O)[C@H](O)CCC[C@H](O)[C@H]1CC[C@H]([C@H]2CC[C@H]([C@H](O)CCCCCCCCCCCCC3=C[C@H](C)OC3=O)O2)O1` (stereo in doubt; 91) [PURPUREDIOLIN], the ED50 came out at 1.1 µg/mL (≈ 1.72 µM) in the data set with PC-3; 3 µg/mL (≈ 4.7 µM) with MIA PaCa-2; 1.6 µg/mL (≈ 2.5 µM) with A549; 2.5 ×10⁻⁴ ug/ml with MCF7; 1.5 µg/mL (≈ 2.35 µM) in the data set on A498. In data set [1], this compound showed an LC50 of 0.43 µg/mL (≈ 0.673 µM). For the same compound, in the data set on HT-29, the EC50 worked out at 0.0046 µg/mL (≈ 0.0072 µM).
As to `CCCCCCCCCCCC[C@H](O)[C@H]1CC[C@H]([C@H](O)CCCC[C@H](O)CCCCCCC[C@@H](O)CC2=C[C@H](C)OC2=O)O1` [ANNOGLACIN A], the EC50 with PC-3 was determined as 0.002 µg/mL (≈ 0.0032 µM); in the data set on A549, 0.0053 µg/mL (≈ 0.00848 µM); in the data set with HT-29, 0.0053 µg/mL (≈ 0.00848 µM); in the data set on A498 it was 0.9 µg/mL (≈ 1.44 µM). The values for the ED50 in the data set on MIA PaCa-2 and in the data set on MCF7 were 5.1 ×10⁻⁷ ug/ml and 9.6 ×10⁻⁴ ug/ml, respectively. The same compound gave an LC50 in data set [1] of 0.49 µg/mL (≈ 0.784 µM).
For `CCCCCCCCCCCC[C@@H](O)[C@H]1CC[C@H]([C@H](O)CCCC[C@H](O)CCCCCCC[C@@H](O)CC2=C[C@H](C)OC2=O)O1` [ANNOGLACIN B], the ED50 was determined as 8.4 ×10⁻⁴ ug/ml in the data set on PC-3, 1.2 ×10⁻⁶ ug/ml with MIA PaCa-2 and 6.2 ×10⁻⁴ ug/ml in the data set on MCF7. This compound also came in with an LC50 in data set [1] of 0.17 µg/mL (≈ 0.272 µM). For the same compound, the EC50 came to 0.0028 µg/mL (≈ 0.00448 µM) with A549, 0.0053 µg/mL (≈ 0.00848 µM) in the data set with HT-29 and 0.4 µg/mL (≈ 0.64 µM) in the data set with A498.
Turning to `CCCCCCCCCCCC/C=C\CC[C@@H](O)[C@H](O)CCCCCCC(=O)CCCCCCCC1=C[C@H](C)OC1=O` [ANNOJAHNIN], the EC50 with PC-3 amounted to 0.016 µg/mL (≈ 0.0271 µM); in the data set with MIA PaCa-2 it was 0.023 µg/mL (≈ 0.0389 µM); in the data set with A549 it was 1.5 µg/mL (≈ 2.54 µM); in the data set on MCF7, 2.8 µg/mL (≈ 4.74 µM); with HT-29, 0.059 µg/mL (≈ 0.0998 µM); in the data set with A498, 4.9 µg/mL (≈ 8.29 µM). The compound further gave an LC50 in data set [1] of 11 µg/mL (≈ 18.6 µM).
Consider `CCCCCCCCCCCC[C@@H](O)[C@H]1CC[C@H]([C@H](O)CCC[C@@H](O)[C@@H](O)CCCCC[C@@H](O)CC2=C[C@H](C)OC2=O)O1` [ANNOMURICIN E], for which the EC50 was determined as 0.15 µg/mL (≈ 0.245 µM) with PC-3; 0.24 µg/mL (≈ 0.392 µM) in the data set on MIA PaCa-2; 0.11 µg/mL (≈ 0.179 µM) with A549; 0.15 µg/mL (≈ 0.245 µM) with MCF7; 0.67 µg/mL (≈ 1.09 µM) in the data set on HT-29; 1.4 µg/mL (≈ 2.28 µM) in the data set on A498. Besides, in data set [1], the LC50 was 18.4 µg/mL (≈ 30 µM).
In the case of `CCCCCCCCCCCC[C@@H](O)[C@H](O)CC[C@H](O)[C@@H]1CC[C@@H](C[C@H](O)CCCCC[C@@H](O)CC2=C[C@H](C)OC2=O)O1` [ANNOPENTOCIN A], the EC50 amounted to 1.1 µg/mL (≈ 1.79 µM) in the data set with PC-3; 0.036 µg/mL (≈ 0.0587 µM) in the data set on MIA PaCa-2; 0.17 µg/mL (≈ 0.277 µM) in the data set on A549; 18 µg/mL (≈ 29.4 µM) in the data set on MCF7; 1.6 µg/mL (≈ 2.61 µM) with HT-29; 0.61 µg/mL (≈ 0.995 µM) with A498. Also, the LC50 in data set [1] was determined as 8.9 µg/mL (≈ 14.5 µM).
`CCCCCCCCCCCC[C@H](O)[C@@H](O)CC[C@H](O)[C@@H]1CC[C@@H](C[C@H](O)CCCCC[C@@H](O)CC2=C[C@H](C)OC2=O)O1` [ANNOPENTOCIN B]: the EC50 in the data set on PC-3 came to 0.21 µg/mL (≈ 0.343 µM); in the data set on MIA PaCa-2, 0.16 µg/mL (≈ 0.261 µM); in the data set with A549, 0.027 µg/mL (≈ 0.0441 µM); in the data set on MCF7, 3.6 µg/mL (≈ 5.87 µM); with HT-29, 1.6 µg/mL (≈ 2.61 µM); in the data set on A498 it was 0.38 µg/mL (≈ 0.62 µM). The compound also returned an LC50 in data set [1] of 0.11 µg/mL (≈ 0.179 µM).
As to `CCCCCCCCCCCC[C@H](O)[C@H](O)CC[C@H](O)[C@@H]1CC[C@@H](C[C@H](O)CCCCC[C@@H](O)CC2=C[C@H](C)OC2=O)O1` [ANNOPENTOCIN C], the EC50 in the data set with PC-3 turned out to be 0.23 µg/mL (≈ 0.375 µM); in the data set with MIA PaCa-2, 0.43 µg/mL (≈ 0.702 µM); with A549, 0.021 µg/mL (≈ 0.0343 µM); in the data set with MCF7, 0.3 µg/mL (≈ 0.489 µM); in the data set with HT-29, 1.2 µg/mL (≈ 1.96 µM); in the data set on A498, 0.26 µg/mL (≈ 0.424 µM). Further, the LC50 in data set [1] is 14 µg/mL (≈ 22.8 µM).
With `CC[C@H](O)[C@H](O)CCCCCC[C@H](O)[C@H]1CC[C@H]([C@H]2CC[C@H]([C@H](O)CCCCCCCCCCCCC3=C[C@H](C)OC3=O)O2)O1` [BULLATETROCIN], the EC50 in the data set with PC-3 is > 1 µg/mL; in the data set on MIA PaCa-2, > 1 µg/mL; in the data set on A549 it was 0.35 µg/mL (≈ 0.548 µM); in the data set on MCF7, 0.5 µg/mL (≈ 0.783 µM); with HT-29, 0.33 µg/mL (≈ 0.516 µM); in the data set on A498 it was > 1 µg/mL. In data set [1], this compound had an LC50 of 0.31 µg/mL (≈ 0.485 µM).
As for `CCCCCCCCCC[C@H](O)[C@H](O)CCCC[C@H]1CC[C@H]([C@H]2CC[C@H]([C@H](O)CCCCC[C@@H](O)CC3=C[C@H](C)OC3=O)O2)O1` [GLABRACIN A], the EC50 with PC-3 was 1.1 µg/mL (≈ 1.72 µM); in the data set on MIA PaCa-2, 1.8 µg/mL (≈ 2.82 µM); with A498, 0.001 µg/mL (≈ 0.00157 µM). Moreover, in data set [1], the LC50 was 0.13 µg/mL (≈ 0.203 µM). Moreover, the ED50 was determined as 2.8 ×10⁻⁶ ug/ml with A549, 4.2 ×10⁻⁶ ug/ml with MCF7 and 5.7 ×10⁻⁶ ug/ml in the data set with HT-29.
